pIC50: −log10 of the molar value.

For experiment [1], the target named is GTPase KRas [G12D]/RAF proto-oncogene serine/threonine-protein kinase (Homo sapiens, UniProt P01116+P04049, G12D). The experiment is described as follows: KRAS G12D/cRAF Binding Assay. The method, then:
(§1) (1) Compound was prepared with DMSO, and diluted by 3-fold gradient with DMSO.(2) 0.1 μl of serial dilutions of the compound was added to a 384-well plate.(3) 5 μl of Tag2-KRASG12D>P at a specific concentration was added to the 384-well plate, and the plate was centrifuged at 1000 rpm for 1 min.(4) Then 5 μl of Tag1-cRAF at a specific concentration was added to the 384-well plate, and the plate was centrifuged at 1000 rpm for 1 min.(5) The plate was incubated at 25° C. for 15 min.(6) 10 μl of the mixture of anti-Tag1-Tb3+ and anti-Tag2-XL665 was added to the 384-well plate.(7) The plate was centrifuged at 1000 rpm for 1 min and incubated at 4° C. for 3 h.(8) The 665/615 nm ratio was read by a microplate reader.(9) Data analysis: The log value of the compound concentration was taken as the abscissa, and the 665/615 nm ratio was used as the ordinate, the data were analyzed by GraphPad Prism 8.0 software.

Experiment [2] concerns the target GTPase KRas (G12D) and Son of Sevenless Homolog 1 (SOS) (Homo sapiens, UniProt P01116+Q07889, G12D). The experiment is described as follows: KRAS G12D/SOS1 Binding Assay. The method, then:
as §1, with “Tag1-SOS1” for “Tag1-cRAF”

In general, pIC50 refers to the negative decadic logarithm of the IC50, by convention in mol/L. A lower pIC50 goes with a large IC50. Turning to `C#Cc1c(F)ccc2cc(O)cc(-c3nc(OCCC(F)(F)F)c4c(N5CC6CCC(C6)C5)nc(OC[C@@]56CCCN5C[C@H](F)C6)nc4c3F)c12` [US20250034169, Compound 9], the pIC50 in experiment [1] is 8.06; in experiment [2], 7.90.
Take `C#Cc1c(F)ccc2cc(O)cc(-c3nc(OCCOC)c4c(N5CC6CCC(C6)C5)nc(OC[C@@]56CCCN5C[C@H](F)C6)nc4c3F)c12` [US20250034169, Compound 10]: the figures for the pIC50 in experiment [1] and in experiment [2] were 8.06 and 7.86, respectively.
For the molecule `[2H]C([2H])([2H])c1nc(-c2cc(O)cc3ccc(F)c(C#C)c23)c(F)c2nc(OC[C@@]34CCCN3C[C@H](F)C4)nc(N3CC4CCC(C4)C3)c12` [US20250034169, Compound 11], the pIC50 was 8.04 in experiment [1] and 7.70 in experiment [2].
On the same counts, the results for `C#Cc1c(F)ccc2cc(O)cc(-c3nc(OCC)c4c(N5CC6CCC(C6)C5)nc(OC[C@@]56CCCN5C[C@H](F)C6)nc4c3F)c12` [US20250034169, Compound 12] are 8.01 and 7.99.
On the same counts, the results for `C#Cc1c(F)ccc2cc(O)cc(-c3nc(C(=O)OCC)c4c(N5CC6CCC(C6)C5)nc(OC[C@@]56CCCN5C[C@H](F)C6)nc4c3F)c12` [US20250034169, Compound 13] are 8.29 and 7.95.
On to `C#Cc1c(F)ccc2cc(O)cc(-c3nc(C#CCC)c4c(N5CC6CCC(C6)C5)nc(OC[C@@]56CCCN5C[C@H](F)C6)nc4c3F)c12` [US20250034169, Compound 24], for which the negative logarithm of the IC50 (pIC50) in experiment [1] was 7.87; in experiment [2] it was 7.82.
In the same order, the values of `C#Cc1c(F)ccc2cc(O)cc(-c3nc(C#CCOC)c4c(N5CC6CCC(C6)C5)nc(OC[C@@]56CCCN5C[C@H](F)C6)nc4c3F)c12` [US20250034169, Compound 25] are 7.82 and 7.77.
In the same order, the values of `C#Cc1c(F)ccc2cc(O)cc(-c3nc(C#CC4CCCC4)c4c(N5CC6CCC(C6)C5)nc(OC[C@@]56CCCN5C[C@H](F)C6)nc4c3F)c12` [US20250034169, Compound 28] are 7.95 and 7.94.
With `C#Cc1c(F)ccc2cc(O)cc(-c3nc(C#CCC(C)C)c4c(N5CC6CCC(C6)C5)nc(OC[C@@]56CCCN5C[C@H](F)C6)nc4c3F)c12` [US20250034169, Compound 29], the figures for the negative logarithm of the IC50 (pIC50) in experiment [1] and in experiment [2] were 7.83 and 7.80, respectively.
Consider `C#Cc1c(F)ccc2cc(O)cc(-c3nc(C#CCCC(C)C)c4c(N5CC6CCC(C6)C5)nc(OC[C@@]56CCCN5C[C@H](F)C6)nc4c3F)c12` [US20250034169, Compound 30], for which the pIC50 in experiment [1] is 8.06; in experiment [2] it was 7.87.
On the same counts, the results for `C#Cc1c(F)ccc2cc(O)cc(-c3nc(C#CCCC#N)c4c(N5CC6CCC(C6)C5)nc(OC[C@@]56CCCN5C[C@H](F)C6)nc4c3F)c12` [US20250034169, Compound 31] are 7.61 and 7.46.
Turning to `C#Cc1c(F)ccc2cc(O)cc(-c3nc(C#C)c4c(N5CC6CC(C6)C5)nc(OC[C@@]56CCCN5C[C@H](F)C6)nc4c3F)c12` [US20250034169, Compound 41], the pIC50 was 7.66 in experiment [1] and 7.50 in experiment [2].
Take `C#Cc1c(F)ccc2cc(O)cc(-c3nc(C#C)c4c(N5CCC[C@@H](C)C5)nc(OC[C@@]56CCCN5C[C@H](F)C6)nc4c3F)c12` [US20250034169, Compound 43]: the pIC50 was 7.79 in experiment [1] and 7.62 in experiment [2].
On the same counts, the results for `C#Cc1c(F)ccc2cc(O)cc(-c3nc(C#C)c4c(N5C[C@H]6CC[C@@H]5C6)nc(OC[C@@]56CCCN5C[C@H](F)C6)nc4c3F)c12` [US20250034169, Compound 44] are 7.82 and 7.53.
On the same counts, the results for `C#Cc1c(F)ccc2cc(O)cc(-c3nc(C#C)c4c(N5CC6CCC(C6)C5)nc(OC[C@]56CCCN5C[C@H](F)C6)nc4c3F)c12` [US20250034169, Compound 49] are 8.16 and 7.80.
On to `C#Cc1c(F)ccc2cc(O)cc(-c3nc(C#C)c4c(N5CC6CCC(C6)C5)nc(OC[C@H]5CCCN5C)nc4c3F)c12` [US20250034169, Compound 50], for which the pIC50 in experiment [1] was 7.72; in experiment [2] it was 7.44.
For `C#Cc1c(F)ccc2cc(O)cc(-c3nc(C#C)c4c(N5CC6CCC(C6)C5)nc(OC[C@@H]5CCCN5C)nc4c3F)c12` [US20250034169, Compound 51], the negative logarithm of the IC50 (pIC50) is 7.95 in experiment [1] and 7.68 in experiment [2].
In the same order, the values of `C#Cc1c(F)ccc2cc(O)cc(-c3nc(C#C)c4c(N5C6CCCC5CC6)nc(OCC5(CN(C)C)CC5)nc4c3F)c12` [US20250034169, Compound 52] are 8.11 and 7.82.
On the same counts, the results for `C#Cc1c(F)ccc2cc(O)cc(-c3nc(C#C)c4c(N5C6CCCC5CC6)nc(OCC5(CN6CCCCC6)CC5)nc4c3F)c12` [US20250034169, Compound 53] are 8.37 and 7.84.
Consider `C#Cc1c(F)ccc2cc(O)cc(-c3nc(C#C)c4c(N5CC6CCC(C6)C5)nc(OCCC(F)(F)F)nc4c3F)c12` [US20250034169, Compound 55], for which the figures for the pIC50 in experiment [1] and in experiment [2] were 8.01 and 7.83, respectively.
On to `C#Cc1c(F)ccc2cc(O)cc(-c3nc(C#C)c4c(N5CC6CCC(C6)C5)nc(OCC5CCCC5)nc4c3F)c12` [US20250034169, Compound 56], for which the pIC50 is 7.73 in experiment [1] and 7.80 in experiment [2].
On the same counts, the results for `C#Cc1nc(-c2cc(O)cc3ccc(F)c(CC)c23)c(F)c2nc(OC[C@@]34CCCN3C[C@H](F)C4)nc(N3CC4CCC(C4)C3)c12` [US20250034169, Compound 65] are 8.00 and 7.73.

Source of the values: BindingDB's records for patent US20250034169 (Sunshine Lake Pharma Co., 2025).
